{"source": "patent EP0237138A1", "about": "“Heterocyclic compounds, their preparation and, pharmaceutical compositions containing them” (YAMANOUCHI PHARMACEUTICAL CO. LTD., priority 1986, dated 1987)", "key": {"[1]": {"target": "T1, human placenta aldose reductase (Homo sapiens, UniProt P15121)", "T1 construct": "a human placenta aldose reductase was purified to a single protein; from tissue; host or cells: human placenta", "assay": "Aldose reductase-inhibitory activity (rate of disappearance of NADPH, glyceraldehyde substrate)", "assay_type": "biochemical", "conditions": "for inhibition at 1 µM: 10^-6(M); for inhibition at 0.1 µM: 10^-7(M)", "procedure": "The compound of the present invention, aldose reductase and nicotinamide adenine dinucleotide phosphate (NADPH) are dissolved in a buffer of pH 6.2 and incubated for 10 minutes at 25°C; glyceraldehyde is added thereto to start the reaction, and the rate of disappearance of NADPH is defined to be the enzyme activity of the aldose reductase."}, "[2]": {"test_system": "Platelet aggregation in PRP", "assay": "Platelet aggregation-inhibitory activity (arachidonate-induced aggregation in platelet-rich plasma, Born's method)", "conditions": "aggregation induced by arachidonate"}}}
{"smiles": "O=C1NC(=O)[C@@]2(CCOc3ccc(F)cc32)N1", "note": "[Sorbinil, reference compound]", "values": [{"measurement": "inhibition at 1 µM", "setting": "[1]", "result": 53.6, "unit": "%"}, {"measurement": "inhibition at 0.1 µM", "setting": "[1]", "result": 15, "unit": "%"}]}
{"smiles": "O=C1NC(=S)SC1=C1C(=O)Nc2ccccc21", "note": "[Example 146, 3-(4-oxo-2-thioxo-3-thiazolidinylidene)-2-indolinone]", "values": [{"measurement": "inhibition at 1 µM", "setting": "[1]", "result": 56, "unit": "%"}]}
{"smiles": "COc1cccc2c1CCCC2=C1SC(=S)N(CC(=O)O)C1=O", "note": "[Example 11, 5-(5-methoxy-1,2,3,4-tetrahydro-1-naphthylidene)-4-oxo-2-thioxo-3-thiazolidine-acetic acid]", "values": [{"measurement": "inhibition at 1 µM", "setting": "[1]", "result": 89, "unit": "%"}, {"measurement": "inhibition at 0.1 µM", "setting": "[1]", "result": 40, "unit": "%"}]}
{"smiles": "O=C1NC(=S)SC1=C1CCSc2ccccc21", "note": "[Example 105, 4-oxo-5-(4-thiochromanylidene)-2-thioxo-thiazolidine]", "values": [{"measurement": "inhibition at 1 µM", "setting": "[1]", "result": 83, "unit": "%"}, {"measurement": "inhibition at 0.1 µM", "setting": "[1]", "result": 29, "unit": "%"}]}
{"smiles": "O=C1NC(=S)SC1=C1C(=O)Nc2ccc(Br)cc21", "note": "[Example 67, 5-bromo-3-(4-oxo-2-thioxo-5-thiazolidinylidene)-2-indolinone]", "values": [{"measurement": "inhibition at 1 µM", "setting": "[1]", "result": 64, "unit": "%"}]}
{"smiles": "O=C1NC(=S)SC1=C1C(=O)Nc2ccc(Cl)cc21", "note": "[Example 66, 5-chloro-3-(4-oxo-2-thioxo-5-thiazolidinylidene)-2-indolinone]", "values": [{"measurement": "inhibition at 1 µM", "setting": "[1]", "result": 72, "unit": "%"}]}
{"smiles": "O=C1NC(=S)SC1=C1CCCS(=O)(=O)c2ccccc21", "note": "[Example 49, 2,3,4,5-tetrahydro-5-(4-oxo-2-thioxo-5-thiazolidinylidene)-1-benzothiepine 1,1-dioxide]", "values": [{"measurement": "inhibition at 1 µM", "setting": "[1]", "result": 65, "unit": "%"}, {"measurement": "inhibition at 0.1 µM", "setting": "[1]", "result": 23, "unit": "%"}]}
{"smiles": "O=C(O)c1ccc(N2C(=O)C(=C3CCS(=O)(=O)c4ccccc43)SC2=S)cc1", "note": "[Example 54, 4-[3-(p-carboxyphenyl)-4-oxo-2-thioxo-5-thiazolidinylidene]thiochroman 1,1-dioxide]", "values": [{"measurement": "Platelet Aggregation Inhibition", "setting": "[2]; 200 (μM)", "result": 65, "unit": "%"}, {"measurement": "inhibition at 1 µM", "setting": "[1]", "result": 30, "unit": "%"}, {"measurement": "inhibition at 0.1 µM", "setting": "[1]", "result": 15, "unit": "%"}]}
{"smiles": "N=C1NC(=O)C(=C2CCS(=O)(=O)c3ccccc32)S1", "note": "[Example 95, 4-(2-imino-4-oxo-5-thiazolidinylidene)thiochroman 1,1-dioxide]", "values": [{"measurement": "Platelet Aggregation Inhibition", "setting": "[2]; 400 (μM)", "result": 43, "unit": "%"}, {"measurement": "inhibition at 1 µM", "setting": "[1]", "result": 65, "unit": "%"}, {"measurement": "inhibition at 0.1 µM", "setting": "[1]", "result": 19, "unit": "%"}]}
{"smiles": "O=C1NC(=O)/C(=C2\\CCS(=O)(=O)c3ccccc32)S1", "note": "[Example 99B, (Z)-4-(2,4-dioxo-5-thiazolidinylidene)thiochroman 1,1-dioxide]", "values": [{"measurement": "inhibition at 1 µM", "setting": "[1]", "result": 87, "unit": "%"}, {"measurement": "inhibition at 0.1 µM", "setting": "[1]", "result": 42, "unit": "%"}]}
{"smiles": "O=C1NC(=S)SC1=C1C=CS(=O)(=O)c2ccccc21", "note": "[Example 119]", "values": [{"measurement": "Platelet Aggregation Inhibition", "setting": "[2]; 400 (μM)", "result": 84, "unit": "%"}, {"measurement": "inhibition at 1 µM", "setting": "[1]", "result": 53, "unit": "%"}, {"measurement": "inhibition at 0.1 µM", "setting": "[1]", "result": 37, "unit": "%"}]}
{"smiles": "COc1ccc2c(c1)CCCC2=C1SC(=S)N(CC(=O)O)C1=O", "note": "[Example 7, 5-(6-methoxy-1,2,3,4-tetrahydro-1-natphylidene)-4-oxo-2-thioxo-3-thiazolidine-acetic acid]", "values": [{"measurement": "Platelet Aggregation Inhibition", "setting": "[2]; 200 (μM)", "result": 100, "unit": "%"}, {"measurement": "inhibition at 1 µM", "setting": "[1]", "result": 93, "unit": "%"}, {"measurement": "inhibition at 0.1 µM", "setting": "[1]", "result": 65, "unit": "%"}]}
